In patent US8471005B2 (Cephalon, Inc., priority 2008, dated 2013):
Where two headings read alike, the source gives them in different places.

Columns and labels:
JAK2 = target: T1, JAK2 (Homo sapiens, UniProt O60674); assay: Recombinant Human JAK2 Kinase Assay (TRF); assay type: biochemical; conditions: read-out: JAK2 Potency
T1 construct: host or cells: baculovirus expression system
Method in brief: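 Kinase activity of baculovirus-expressed JAK2 is followed on a surface-immobilised biotinylated peptide, with the reaction run for 20 min at room temperature in buffer containing 0.2 μM ATP and manganese. Phosphorylation is read with Eu-N1 PY100 antibody.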

ALK = target: T2, ALK (Homo sapiens, UniProt Q9UM73); assay: ALK Kinase Assay (ELISA/TRF, PLC-γ substrate); assay type: biochemical; conditions: read-out: ALK Potency
T2 construct: host or cells: baculovirus expression system
Method in brief: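 PLC-γ substrate coated at 10 μg/mL in TBS; reaction started with 30 ng/ml ALK, run 15 min at 37° C. Phosphoproduct detected by TRF with Eu-N1-labeled PT66 anti-phosphotyrosine antibody. IC50 from sigmoidal variable-slope fit of percent inhibition versus log concentration.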

[1] = JAK2 kinase inhibition, 0.2 μM ATP
[2] = ALK kinase inhibition, 1 μM ATP

T1 sequence (O60674 whole entry): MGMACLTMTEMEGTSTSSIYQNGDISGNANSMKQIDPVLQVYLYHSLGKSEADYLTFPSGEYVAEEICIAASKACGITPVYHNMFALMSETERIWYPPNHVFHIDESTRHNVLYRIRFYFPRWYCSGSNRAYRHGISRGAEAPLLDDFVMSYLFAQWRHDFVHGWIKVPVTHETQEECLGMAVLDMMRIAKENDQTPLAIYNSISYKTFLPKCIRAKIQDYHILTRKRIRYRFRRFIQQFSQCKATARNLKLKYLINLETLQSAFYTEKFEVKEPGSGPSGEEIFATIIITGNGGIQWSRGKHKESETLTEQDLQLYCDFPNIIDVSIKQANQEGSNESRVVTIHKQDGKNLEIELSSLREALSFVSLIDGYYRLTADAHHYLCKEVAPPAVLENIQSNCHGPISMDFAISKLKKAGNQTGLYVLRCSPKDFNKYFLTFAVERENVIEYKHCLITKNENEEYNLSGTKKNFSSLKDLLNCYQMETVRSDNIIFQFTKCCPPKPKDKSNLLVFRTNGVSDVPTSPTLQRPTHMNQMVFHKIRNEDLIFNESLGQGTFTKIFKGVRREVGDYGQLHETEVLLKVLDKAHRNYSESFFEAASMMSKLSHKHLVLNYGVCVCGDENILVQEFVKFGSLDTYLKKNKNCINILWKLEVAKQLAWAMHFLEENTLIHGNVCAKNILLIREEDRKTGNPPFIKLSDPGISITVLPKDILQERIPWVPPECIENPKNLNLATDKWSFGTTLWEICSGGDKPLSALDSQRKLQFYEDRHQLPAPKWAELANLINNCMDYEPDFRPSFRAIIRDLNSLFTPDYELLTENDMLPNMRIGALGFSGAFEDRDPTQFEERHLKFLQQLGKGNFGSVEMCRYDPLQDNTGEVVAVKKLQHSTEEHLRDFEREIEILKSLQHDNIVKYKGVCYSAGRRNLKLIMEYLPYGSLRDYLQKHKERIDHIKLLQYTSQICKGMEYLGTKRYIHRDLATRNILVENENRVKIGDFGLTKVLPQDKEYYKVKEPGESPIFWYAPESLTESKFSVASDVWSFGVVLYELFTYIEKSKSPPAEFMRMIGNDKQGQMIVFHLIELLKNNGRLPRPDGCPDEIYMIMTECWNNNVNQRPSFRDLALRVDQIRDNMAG
T2 sequence (Q9UM73 19-1620): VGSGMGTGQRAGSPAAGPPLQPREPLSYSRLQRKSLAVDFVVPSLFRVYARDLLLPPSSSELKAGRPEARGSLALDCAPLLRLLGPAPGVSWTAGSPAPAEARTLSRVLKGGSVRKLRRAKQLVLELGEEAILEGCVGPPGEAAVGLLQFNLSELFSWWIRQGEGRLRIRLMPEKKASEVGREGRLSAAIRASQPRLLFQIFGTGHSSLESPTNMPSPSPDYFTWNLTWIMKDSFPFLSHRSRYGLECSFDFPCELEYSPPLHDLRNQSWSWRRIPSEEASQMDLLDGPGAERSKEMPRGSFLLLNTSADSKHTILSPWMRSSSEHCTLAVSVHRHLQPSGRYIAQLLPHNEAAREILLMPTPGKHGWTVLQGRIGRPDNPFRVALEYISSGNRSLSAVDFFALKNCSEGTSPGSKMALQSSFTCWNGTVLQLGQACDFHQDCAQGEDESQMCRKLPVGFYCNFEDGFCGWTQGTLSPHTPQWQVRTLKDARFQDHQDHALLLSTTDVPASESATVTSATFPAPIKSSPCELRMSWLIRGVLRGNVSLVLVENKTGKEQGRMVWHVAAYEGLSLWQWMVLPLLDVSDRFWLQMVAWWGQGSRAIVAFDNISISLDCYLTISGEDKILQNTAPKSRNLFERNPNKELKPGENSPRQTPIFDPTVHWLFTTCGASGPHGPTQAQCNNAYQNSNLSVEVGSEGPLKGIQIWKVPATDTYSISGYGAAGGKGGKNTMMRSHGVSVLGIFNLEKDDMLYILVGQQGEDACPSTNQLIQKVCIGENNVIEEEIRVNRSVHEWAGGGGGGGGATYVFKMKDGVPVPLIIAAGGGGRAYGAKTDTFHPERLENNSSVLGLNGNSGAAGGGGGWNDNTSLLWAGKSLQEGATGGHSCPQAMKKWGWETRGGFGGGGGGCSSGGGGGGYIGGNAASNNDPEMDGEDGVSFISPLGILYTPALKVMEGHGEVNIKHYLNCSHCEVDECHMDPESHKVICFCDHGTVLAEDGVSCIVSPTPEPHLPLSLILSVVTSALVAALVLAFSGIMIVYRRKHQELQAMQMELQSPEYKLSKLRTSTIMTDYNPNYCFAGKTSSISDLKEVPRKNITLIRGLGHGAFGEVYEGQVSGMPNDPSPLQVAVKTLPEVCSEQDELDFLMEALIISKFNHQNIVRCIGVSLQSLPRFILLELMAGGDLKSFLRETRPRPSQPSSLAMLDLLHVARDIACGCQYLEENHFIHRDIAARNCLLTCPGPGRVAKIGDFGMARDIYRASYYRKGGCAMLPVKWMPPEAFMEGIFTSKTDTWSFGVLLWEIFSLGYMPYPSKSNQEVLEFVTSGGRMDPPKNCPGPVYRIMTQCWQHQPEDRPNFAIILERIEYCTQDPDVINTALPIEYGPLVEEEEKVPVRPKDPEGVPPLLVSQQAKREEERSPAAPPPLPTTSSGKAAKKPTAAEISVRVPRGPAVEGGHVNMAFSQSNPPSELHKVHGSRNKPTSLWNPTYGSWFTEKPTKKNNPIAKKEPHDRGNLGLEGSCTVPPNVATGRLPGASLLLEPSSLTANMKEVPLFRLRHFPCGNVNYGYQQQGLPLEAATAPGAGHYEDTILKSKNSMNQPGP

| IC50 (JAK2; JAK2 Kinase Inhibition) | IC50 (ALK; ALK Kinase Inhibition) | IC50 (JAK2; [1]) | IC50 (ALK; [2]) | Compound |
| --- | --- | --- | --- | --- |
| < 100 nM | 1000 to 10000 nM | – | – | C=Cc1cc(-c2ccc(S(C)(=O)=O)cc2)n2nc(Nc3ccc(N4CCN(C)CC4)cc3)ncc12 [Example 104, [7-(4-Methanesulfonyl-phenyl)-5-vinyl-pyrrolo[2,1-f][1,2,4]triazin-2-yl]-[4-(4-methyl-piperazin-1-yl)-phenyl]-amine] |
| < 100 nM | 100 to 1000 nM | – | – | COc1ccc(OC)c(-c2ccc3cnc(Nc4ccc(N5CCOCC5)cc4)nn23)c1 [Example 424, [7-(2,5-Dimethoxy-phenyl)-pyrrolo[2,1-f][1,2,4]triazin-2-yl]-(4-morpholin-4-yl-phenyl)-amine] |
| < 100 nM | < 100 nM | – | – | COc1cc(N2CCC(N3CCOCC3)CC2)ccc1Nc1ncc2ccc(-c3ccccc3N(CC3CC3)S(C)(=O)=O)n2n1 [Example 1461, N-Cyclopropylmethyl-N-(2-{2-[2-methoxy-4-(4-morpholin-4-yl-piperidin-1-yl)-phenylamino]-pyrrolo[2,1-f][1,2,4]triazin-7-yl}-phenyl)-methanesulfonamide] |
| < 100 nM | 1000 to 10000 nM | – | – | c1cncc(-c2ccc3cnc(Nc4cccc(N5CCOCC5)c4)nn23)c1 [Example 309, (3-Morpholin-4-yl-phenyl)-(7-pyridin-3-yl-pyrrolo[2,1-f][1,2,4]triazin-2-yl)-amine] |
| < 100 nM | 100 to 1000 nM | – | – | CN1CCN(CCCOc2ccc(Nc3ncc4ccc(-c5cccnc5)n4n3)cc2)CC1 [Example 120, {4-[3-(4-Methyl-piperazin-1-yl)-propoxy]-phenyl}-(7-pyridin-3-yl-pyrrolo[2,1-f][1,2,4]triazin-2-yl)-amine] |
| < 100 nM | 100 to 1000 nM | – | – | O=C(NCCN1CCCC1)c1ccc(-c2ccc3cnc(Nc4ccc(N5CCOCC5)cc4)nn23)cc1 [Example 53, 4-[2-(4-Morpholin-4-yl-phenylamino)-pyrrolo[2,1-f][1,2,4]triazin-7-yl]-N-(2-pyrrolidin-1-yl-ethyl)-benzamide] |
| < 100 nM | 1000 to 10000 nM | – | – | O=C(NCCN1CCOCC1)c1ccc(-c2ccc3cnc(Nc4ccc(N5CCOCC5)cc4)nn23)cc1 [Example 56, N-(2-Morpholin-4-yl-ethyl)-4-[2-(4-morpholin-4-yl-phenylamino)-pyrrolo[2,1-f][1,2,4]triazin-7-yl]-benzamide] |
| < 100 nM | 100 to 1000 nM | – | – | COc1cccc(-c2ccc3cnc(Nc4ccc(N5CCN(C)CC5)cc4)nn23)c1 [Example 423, [7-(3-Methoxy-phenyl)-pyrrolo[2,1-f][1,2,4]triazin-2-yl]-[4-(4-methyl-piperazin-1-yl)-phenyl]-amine] |
| 1000 to 10000 nM | > 10000 nM | – | – | c1ccc(-c2ccc3cnc(NCCN4CCOCC4)nn23)cc1 [Example 28, (2-Morpholin-4-yl-ethyl)-(7-phenyl-pyrrolo[2,1-f][1,2,4]triazin-2-yl)-amine] |
| < 100 nM | 100 to 1000 nM | – | – | CN1CCN(CC2CCCN(c3ccc(Nc4ncc5ccc(-c6ccc(S(C)(=O)=O)cc6)n5n4)cc3)C2)CC1 (stereo not shown) [Example 457, [7-(4-Methanesulfonyl-phenyl)-pyrrolo[2,1-f][1,2,4]triazin-2-yl]-{4-[3-(4-methyl-piperazin-1-ylmethyl)-piperidin-1-yl]-phenyl}-amine] |
| < 100 nM | 100 to 1000 nM | – | – | COc1ccc(Cl)cc1-c1ccc2cnc(Nc3cccc(C(=O)N4CCN(C)CC4)c3)nn12 [Example 339, {3-[7-(5-Chloro-2-methoxy-phenyl)-pyrrolo[2,1-f][1,2,4]triazin-2-ylamino]-phenyl}-(4-methyl-piperazin-1-yl)-methanone] |

Second part, the compound before the results:

| Compound | IC50 (JAK2; JAK2 Kinase Inhibition) | IC50 (ALK; ALK Kinase Inhibition) | IC50 (JAK2; [1]) | IC50 (ALK; [2]) |
| --- | --- | --- | --- | --- |
| CC1(C)CCC(=O)Nc2cc(Nc3ncc4ccc(-c5cccc(NS(C)(=O)=O)c5)n4n3)ccc21 [Example 381, N-{3-[2-(5,5-Dimethyl-2-oxo-2,3,4,5-tetrahydro-1H-1-benzazepin-8-ylamino)-pyrrolo[2,1-f][1,2,4]triazin-7-yl]-phenyl}-methanesulfonamide] | < 100 nM | 100 to 1000 nM | – | – |
| COc1ccccc1-c1ccc2cnc(Nc3ccc4[nH]ccc4c3)nn12 [Example 170, (1H-Indol-5-yl)-[7-(2-methoxy-phenyl)-pyrrolo[2,1-f][1,2,4]triazin-2-yl]-amine] | < 100 nM | 1000 to 10000 nM | – | – |
| CN1CCN(c2cccc(Nc3ncc4ccc(-c5cnn(C)c5)n4n3)c2)CC1 [Example 969, [3-(4-Methyl-piperazin-1-yl)-phenyl]-[7-(1-methyl-1H-pyrazol-4-yl)-pyrrolo[2,1-f][1,2,4]triazin-2-yl]-amine] | – | – | < 100 nM | 1000 to 10000 nM |
| O=S(=O)(CC1CC1)c1cccc(-c2ccc3cnc(Nc4ccc5nc[nH]c5c4)nn23)c1 [Example 1319, (3H-Benzimidazol-5-yl)-[7-(3-cyclopropylmethanesulfonyl-phenyl)-pyrrolo[2,1-f][1,2,4]triazin-2-yl]-amine] | – | – | < 100 nM | 1000 to 10000 nM |
| COc1ccccc1-c1cc(Br)n2nc(Nc3ccc(N4CCN(C)CC4)cc3)ncc12 [Example 102, [7-Bromo-5-(2-methoxy-phenyl)-pyrrolo[2,1-f][1,2,4]triazin-2-yl]-[4-(4-methyl-piperazin-1-yl)-phenyl]-amine] | 1000 to 10000 nM | > 10000 nM | – | – |
| COc1cc(C2CCN(CCO)CC2)ccc1Nc1ncc2ccc(-c3cccc4c3OCC4)n2n1 [Example 702, 2-(4-{4-[7-(2,3-Dihydro-benzofuran-7-yl)-pyrrolo[2,1-f][1,2,4]triazin-2-ylamino]-3-methoxy-phenyl}-piperidin-1-yl)-ethanol] | – | – | 100 to 1000 nM | < 100 nM |
| COc1cc2c(cc1Nc1ncc3ccc(-c4ccccc4N(C)S(C)(=O)=O)n3n1)CN(CC(N)=O)C2 [Example 869, 2-(5-{7-[2-(Methanesulfonyl-methyl-amino)-phenyl]-pyrrolo[2,1-f][1,2,4]triazin-2-ylamino}-6-methoxy-1,3-dihydro-isoindol-2-yl)-acetamide] | – | – | 100 to 1000 nM | < 100 nM |
| CC(C)C(=O)Nc1cccc(Nc2ncc3ccc(-c4cccc(S(=O)(=O)NC(C)(C)C)c4)n3n2)c1 [Example 1385, N-{3-[7-(3-tert-Butylsulfamoyl-phenyl)-pyrrolo[2,1-f][1,2,4]triazin-2-ylamino]-phenyl}-isobutyramide] | < 100 nM | 1000 to 10000 nM | – | – |
| COc1ccccc1-c1ccc2cnc(Nc3ccc4c(c3)NC(=O)CC4)nn12 [Example 981, 7-[7-(2-Methoxy-phenyl)-pyrrolo[2,1-f][1,2,4]triazin-2-ylamino]-3,4-dihydro-1H-quinolin-2-one] | – | – | < 100 nM | 100 to 1000 nM |
| COc1cccc(Nc2ncc3ccc(-c4cccc(S(=O)(=O)NC(C)(C)C)c4)n3n2)c1 [Example 1396, N-tert-Butyl-3-[2-(3-methoxy-phenylamino)-pyrrolo[2,1-f][1,2,4]triazin-7-yl]-benzenesulfonamide] | < 100 nM | 1000 to 10000 nM | – | – |
| CN1CCN(c2ccc(Nc3ncc4ccc(-c5ccccc5OCC(=O)O)n4n3)cc2F)CC1 [Example 1401, (2-{2-[3-Fluoro-4-(4-methyl-piperazin-1-yl)-phenylamino]-pyrrolo[2,1-f][1,2,4]triazin-7-yl}-phenoxy)-acetic acid] | < 100 nM | 100 to 1000 nM | – | – |
| COc1ccc(-c2ccc3cnc(Nc4ccc5c(c4)N(C)CCC5)nn23)cn1 [Example 980, [7-(6-Methoxy-pyridin-3-yl)-pyrrolo[2,1-f][1,2,4]triazin-2-yl]-(1-methyl-1,2,3,4-tetrahydro-quinolin-7-yl)-amine] | – | – | < 100 nM | > 10000 nM |
| COc1cc(N2CCC(N3CCCC3)CC2)ccc1Nc1ncc2ccc(-c3ccccc3OC)n2n1 [Example 481, [7-(2-Methoxy-phenyl)-pyrrolo[2,1-f][1,2,4]triazin-2-yl]-[2-methoxy-4-(4-pyrrolidin-1-yl-piperidin-1-yl)-phenyl]-amine] | – | – | 100 to 1000 nM | < 100 nM |
| 3-(2-{2-[3-(2-Methoxy-1-methyl-ethoxy)-phenylamino]-pyrrolo[2,1-f][1,2,4]triazin-7-yl}-pyrrol-1-yl)-propionitrile [Example 1295] | – | – | 100 to 1000 nM | > 10000 nM |
| C[C@H](O)CN1CCN(c2cc([S@@+](C)[O-])c(Nc3ncc4ccc(-c5ccccc5N(C)S(C)(=O)=O)n4n3)cc2F)CC1 [Example 1484, (R,S)—N-[2-(2-{5-Fluoro-4-[4-((S)-2-hydroxy-propyl)-piperazin-1-yl]-2-methanesulfinyl-phenylamino}-pyrrolo[2,1-f][1,2,4]triazin-7-yl)-phenyl]-N-methyl-methanesulfonamide] | < 100 nM | < 100 nM | – | – |
| COc1ccc(Cl)cc1-c1ccc2cnc(Nc3ccc4ncccc4c3)nn12 [Example 173, [7-(5-Chloro-2-methoxy-phenyl)-pyrrolo[2,1-f][1,2,4]triazin-2-yl]-quinolin-6-yl-amine] | < 100 nM | 100 to 1000 nM | – | – |
| COc1cc(N2CCCC(N3CCN(C)CC3)C2)ccc1Nc1ncc2ccc(-c3ccccc3OC)n2n1 (single isomer, unassigned) [Example 1441, {2-Methoxy-4-[3-(4-methyl-piperazin-1-yl)-piperidin-1-yl]-phenyl}-[7-(2-methoxy-phenyl)-pyrrolo[2,1-f][1,2,4]triazin-2-yl]-amine] | < 100 nM | < 100 nM | – | – |
| COc1cc(N2CCOCC2)ccc1Nc1ncc2cc3ccccc3n2n1 [Example 266, (2-Methoxy-4-morpholin-4-yl-phenyl)-[1,2,4]triazino[1,6-a]indol-2-yl-amine] | > 10000 nM | 1000 to 10000 nM | – | – |
